Test results as given in PubChem BioAssay (NCI).
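48-hour exposure; five concentrations; linearly interpolated endpoints. GI50 marks 50% less growth. TGI denotes the concentration required for complete inhibition of growth.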

Legend:
Experiment in all cases: NCI tumour cell line growth inhibition, 48 h
UO-31 renal = tested on: UO-31 renal
DU-145 prostate = tested on: DU-145 prostate
OVCAR-4 ovarian = tested on: OVCAR-4 ovarian
A498 renal = tested on: A498 renal
MCF7 breast = tested on: MCF7 breast
COLO 205 colon = tested on: COLO 205 colon
BT-549 breast = tested on: BT-549 breast
HS 578T breast = tested on: HS 578T breast
TK-10 renal = tested on: TK-10 renal
RPMI-8226 leukemia = tested on: RPMI-8226 leukemia
SN12C renal = tested on: SN12C renal
MOLT-4 leukemia = tested on: MOLT-4 leukemia
MDA-MB-435 = tested on: MDA-MB-435
NCI-H522 lung = tested on: NCI-H522 lung
A549 NSCLC = tested on: A549 NSCLC
SF-539 CNS = tested on: SF-539 CNS
LOX IMVI melanoma = tested on: LOX IMVI melanoma
ACHN renal = tested on: ACHN renal
SK-MEL-2 melanoma = tested on: SK-MEL-2 melanoma
K-562 leukemia = tested on: K-562 leukemia
HCT-15 colon = tested on: HCT-15 colon
KM12 colon = tested on: KM12 colon
HOP-92 NSCLC = tested on: HOP-92 NSCLC
NCI-H23 lung = tested on: NCI-H23 lung
HCC-2998 colon = tested on: HCC-2998 colon
SK-OV-3 ovarian = tested on: SK-OV-3 ovarian
SNB-75 CNS = tested on: SNB-75 CNS
SW-620 colon = tested on: SW-620 colon
NCI/ADR-RES ovarian = tested on: NCI/ADR-RES ovarian
M14 melanoma = tested on: M14 melanoma
HOP-62 NSCLC = tested on: HOP-62 NSCLC
SK-MEL-5 melanoma = tested on: SK-MEL-5 melanoma
786-0 renal = tested on: 786-0 renal
UACC-62 melanoma = tested on: UACC-62 melanoma
NCI-H226 lung = tested on: NCI-H226 lung
MALME-3M melanoma = tested on: MALME-3M melanoma
HT29 colon = tested on: HT29 colon
EKVX NSCLC = tested on: EKVX NSCLC
OVCAR-3 ovarian = tested on: OVCAR-3 ovarian
OVCAR-8 ovarian = tested on: OVCAR-8 ovarian
SR leukemia = tested on: SR leukemia
U251 CNS = tested on: U251 CNS
T-47D breast = tested on: T-47D breast
RXF 393 renal = tested on: RXF 393 renal
NCI-H460 lung = tested on: NCI-H460 lung
MDA-MB-231 breast = tested on: MDA-MB-231 breast
CAKI-1 renal = tested on: CAKI-1 renal
OVCAR-5 ovarian = tested on: OVCAR-5 ovarian
PC-3 prostate = tested on: PC-3 prostate
HL-60(TB) leukemia = tested on: HL-60(TB) leukemia
SF-268 CNS = tested on: SF-268 CNS
HCT-116 colon = tested on: HCT-116 colon
UACC-257 melanoma = tested on: UACC-257 melanoma
SF-295 CNS = tested on: SF-295 CNS
IGROV1 ovarian = tested on: IGROV1 ovarian
SK-MEL-28 melanoma = tested on: SK-MEL-28 melanoma
SNB-19 CNS = tested on: SNB-19 CNS
CCRF-CEM leukemia = tested on: CCRF-CEM leukemia

## CC[C@@H](c1ccc(O)c(O)c1)[C@@H](CC)c1ccc(O)c(O)c1
UO-31 renal
  GI50: 4.12 µM
  TGI: 21.4 µM
DU-145 prostate
  GI50: 12.9 µM
  TGI: 26.2 µM
OVCAR-4 ovarian
  GI50: 4.6 µM
  TGI: 39.3 µM
A498 renal
  GI50: 44.4 µM
  TGI: > 100 µM
MCF7 breast
  GI50: 34.9 µM
  TGI: > 100 µM
COLO 205 colon
  GI50: 1.97 µM
  TGI: 4.11 µM
BT-549 breast
  GI50: 13.2 µM
  TGI: 26.1 µM
HS 578T breast
  GI50: 73.3 µM
  TGI: > 100 µM
TK-10 renal
  GI50: 26 µM
  TGI: 70.3 µM
RPMI-8226 leukemia
  GI50: 4.31 µM
  TGI: 26.3 µM
SN12C renal
  GI50: 19.3 µM
  TGI: 41.3 µM
MOLT-4 leukemia
  GI50: 4.21 µM
  TGI: 22.5 µM
MDA-MB-435
  GI50: 3.47 µM
  TGI: 15.1 µM
NCI-H522 lung
  GI50: 2.46 µM
  TGI: 5.63 µM
A549 NSCLC
  GI50: 31.9 µM
  TGI: > 100 µM
SF-539 CNS
  GI50: 6.66 µM
  TGI: 23.6 µM
LOX IMVI melanoma
  GI50: 2.85 µM
  TGI: 9.91 µM
ACHN renal
  GI50: 1.94 µM
  TGI: 4.03 µM
SK-MEL-2 melanoma
  GI50: 30.7 µM
  TGI: 77.8 µM
K-562 leukemia
  GI50: 3.38 µM
  TGI: 94.5 µM
HCT-15 colon
  GI50: 2.39 µM
  TGI: 9.41 µM
KM12 colon
  GI50: 18.5 µM
  TGI: 35.1 µM
HOP-92 NSCLC
  GI50: 2.02 µM
  TGI: 6.09 µM
NCI-H23 lung
  GI50: 14.2 µM
  TGI: 31.8 µM
HCC-2998 colon
  GI50: 17.4 µM
  TGI: 33.1 µM
SK-OV-3 ovarian
  GI50: 29.4 µM
  TGI: 77.9 µM
SNB-75 CNS
  GI50: 17.7 µM
  TGI: 41.6 µM
SW-620 colon
  GI50: 2.4 µM
  TGI: 5.67 µM
NCI/ADR-RES ovarian
  GI50: 10.1 µM
  TGI: 62.7 µM
M14 melanoma
  GI50: 3.59 µM
  TGI: 13.5 µM
HOP-62 NSCLC
  GI50: 17.7 µM
  TGI: 33 µM
SK-MEL-5 melanoma
  GI50: 13.6 µM
  TGI: 28.9 µM
786-0 renal
  GI50: 20.4 µM
  TGI: 38.2 µM
UACC-62 melanoma
  GI50: 10.4 µM
  TGI: 23.4 µM
NCI-H226 lung
  GI50: 21.1 µM
  TGI: 44 µM
MALME-3M melanoma
  GI50: 3.91 µM
  TGI: 19.8 µM
HT29 colon
  GI50: 11.9 µM
  TGI: 58.2 µM
EKVX NSCLC
  GI50: 13.4 µM
  TGI: 29.4 µM
OVCAR-3 ovarian
  GI50: 3.61 µM
  TGI: 11.6 µM
OVCAR-8 ovarian
  GI50: 25.6 µM
  TGI: > 100 µM
SR leukemia
  GI50: 4.17 µM
  TGI: > 100 µM
U251 CNS
  GI50: 15.8 µM
  TGI: 37.8 µM
T-47D breast
  GI50: 2.48 µM
  TGI: 7.96 µM
RXF 393 renal
  GI50: 2.57 µM
  TGI: 7.59 µM
NCI-H460 lung
  GI50: 26.1 µM
  TGI: 62 µM
MDA-MB-231 breast
  GI50: 12 µM
  TGI: 29.1 µM
CAKI-1 renal
  GI50: 2.77 µM
  TGI: 9.43 µM
OVCAR-5 ovarian
  GI50: 19.5 µM
  TGI: 37.8 µM
PC-3 prostate
  GI50: 12.4 µM
  TGI: 28.9 µM
HL-60(TB) leukemia
  GI50: 2.66 µM
  TGI: 6.21 µM
SF-268 CNS
  GI50: 17.9 µM
  TGI: 37.5 µM
HCT-116 colon
  GI50: 4.23 µM
  TGI: 14.4 µM
UACC-257 melanoma
  GI50: 14.9 µM
  TGI: 38.1 µM
SF-295 CNS
  GI50: 27.4 µM
  TGI: 87 µM
IGROV1 ovarian
  GI50: 9.57 µM
  TGI: 85.5 µM
SK-MEL-28 melanoma
  GI50: 19.1 µM
  TGI: 44.6 µM
SNB-19 CNS
  GI50: 40.4 µM
  TGI: > 100 µM
CCRF-CEM leukemia
  GI50: 2.88 µM
  TGI: 9.39 µM
